In brackets after ≈: the same amount, converted by molar mass. Read-outs that look alike come from different tables or passages of the source.
Columns and labels:
Type in all cases: cell-based
[1] = Cytotoxicity evaluation on HCT-116 cell line (SRB); conditions: human, HCT-116 cells, 72 hours treatment, read-out: Anti-HCT116 CC50
Protocol: (§1) The biological activity of the compounds of the present invention were evaluated. The activity against mycobacteria (Mtb) was assessed by minimum inhibitory concentration values (MIC, µM) determination. The selectivity index (SI) is defined as: SI = (CC50)/(MIC) [formula] wherein CC50 refers to the half maximal cytotoxic concentration of compounds towards particular eukaryotic cells, either for HCT116 cells and/or VERO cells; MIC refers to the minimum inhibitory concentration of the compounds towards mycobacteria.
Human HCT-116 colon cancer cells were seeded in 96-well plates (2500 cells/well) 24 hours before being treated for 72 hours with the tested compounds. Cells were grown and treated in DMEM 10% FBS. For each compound, 11 concentrations, corresponding to twofold serial dilutions from the maximum concentration, were evaluated, with each concentration tested in duplicate. DMSO was set at 0.5% final concentration in each well, including in the untreated conditions. At the end of the treatment, cells were fixed 1 hour at 4°C by addition of cold 10 % trichloroacetic acid to a final 3.33 % concentration, then washed 4 times with water. The plates were dried and the cells stained for 30 minutes with 0.057 % (wt/vol) Sulforhodamine B (SRB) in 1% acetic acid, then washed 4 times with 1% acetic acid and dried. The dye was resuspended by a 1 h 30 incubation in 200 µL of 10 mM Tris-base and the absorbance at 490 nm measured with a plate reader (µquant, Bio-tek). For normalization, the background value was subtracted to each value, the duplicates averaged and the untreated condition set to 100% cell viability. CC50 were computed from at least three independent experiments using the GraphPad Prism software using a non-linear regression to a four-parameter logistic curve (log[inhibitor] vs response; variable slope).

[2] = Cytotoxicity evaluation on Vero cell line (MTT); conditions: Vero cells, read-out: Anti-VERO CC50
Protocol: as §1
Cytotoxicity evaluation of the tested molecules by MTT assay was performed on the Vero cell line. Briefly, cells (5.10^4 cells/mL) in 100 µL of complete medium [MEM supplemented with 10% fetal calf serum (FCS), 2 mM L-glutamine and antibiotics (100U/mL penicillin and 100 µg/mL streptomycin)] were seeded into each well of 96-well plates and incubated at 37 °C in a humidified 5% CO2 with 95% air atmosphere. After a 24 h incubation, 100 µL of medium with various product concentrations and appropriate controls were added and the plates were incubated for 72 h at 37 °C. Each plate-well was then microscope-examined for detecting possible precipitate formation before the medium was aspirated from the wells. 100 µL of MTT solution (0.5 mg/mL in complete MEM) were then added to each well. Cells were incubated for 1 h at 37 °C and the MTT solution was then removed, and DMSO (100 µL/well) was added to dissolve the resulting formazan crystals. Plates were shaken vigorously (300 rpm) for 5 min. The absorbance was measured at 570 nm with a microplate spectrophotometer (BIOTEK Eon). DMSO was used as blank and SDS as positive control. CC50 were calculated by non-linear regression analysis processed on dose-response curves, using TableCurve 2D V5 software.

[3] = system: M. abscessus; assay: Antibacterial activity MIC, M. abscessus; conditions: Mycobacteroides abscessus
[4] = system: Mycobacterium tuberculosis strain H37Rv; assay: Mycobacterial growth inhibition assay (colorimetric MTT micro assay, MIC)
[5] = system: M. smegmatis; assay: Antibacterial activity MIC, M. smegmatis; conditions: Mycolicibacterium smegmatis
[6] = system: C. glutamicum; assay: Antibacterial activity MIC, C. glutamicum; conditions: Corynebacterium glutamicum
[7] = system: E. coli; assay: Antibacterial activity MIC, E. coli; conditions: Escherichia coli
[8] = system: M. kansasii; assay: Antibacterial activity MIC, M. kansasii; conditions: Mycobacterium kansasii
[9] = M. tuberculosis (Table 4), read-out: Antibacterial activity MIC M. tuberculosis
[10] = M. tuberculosis H37Rv, 7H9 broth, 6 days incubation then MTT 24 h, read-out: Anti-Mtb MIC
[11] = read-out: Antibacterial activity MIC M. tuberculosis

SMILES	CC50 at 72 h ([1]; HCT-116 colon cancer cells) [µM]	CC50 at 72 h ([2]; African green monkey) [µM]	MIC [4, 10] [µM]	further results
CCCCCCCCCCCC(O)C#CCO (racemic) [Compound 1, Pentadec-2-yne-1,4-diol]	60	89	1.25 (≈ 0.3 µg/mL)	MIC [3]: 2.5 µM (≈ 0.601 µg/mL); MIC [4, 9]: 1.25 µM (≈ 0.3 µg/mL)
CCCCCCCCCCC[C@@H](O)C#CCO [(R)-1, (R)-Pentadec-2-yne-1,4-diol]	–	–	1.25 (≈ 0.3 µg/mL)	–
C=C=C[C@@H](O)C#CCCCCCCCCCCCC [(R)-19]	–	–	–	MIC [4, 11]: 2.5 µM (≈ 0.656 µg/mL); MIC [5]: 10 µM (≈ 2.62 µg/mL); MIC [6]: > 10 µM; MIC [7]: > 10 µM; MIC [8]: 5 µM (≈ 1.31 µg/mL)
CCCCCCCCCCC[C@@H](O)C#C[C@H](O)CC [(R,R)-6, (3R,6R)-heptadec-4-yne-3,6-diol]	–	–	2.5 (≈ 0.671 µg/mL)	–
CCCCCCCCCCC[C@H](O)C#C[C@H](O)CC [(R,S)-6, (3R,6S)-heptadec-4-yne-3,6-diol]	–	–	2.5 (≈ 0.671 µg/mL)	–
CCCCCCCCCCC[C@H](O)C#CCO [(S)-1, (S)-Pentadec-2-yne-1,4-diol]	–	–	1.25 (≈ 0.3 µg/mL)	–
C=C=C[C@H](O)C#CCCCCCCCCCCCC [(S)-19]	–	–	–	MIC [4, 11]: 2.5 µM (≈ 0.656 µg/mL); MIC [5]: 10 µM (≈ 2.62 µg/mL); MIC [6]: > 10 µM; MIC [7]: > 10 µM; MIC [8]: 2.5 µM (≈ 0.656 µg/mL)
C#C[C@H](O)C#CCCCCCCCCCCCC [(S)-20]	–	–	–	MIC [4, 11]: 1.2 µM (≈ 0.298 µg/mL); MIC [5]: 2.5 µM (≈ 0.621 µg/mL); MIC [6]: 10 µM (≈ 2.48 µg/mL); MIC [7]: > 10 µM; MIC [8]: 1.2 µM (≈ 0.298 µg/mL)
CCCCCCCCCCC[C@@H](O)C#C[C@@H](O)CC [(S,R)-6, (3S,6R)-heptadec-4-yne-3,6-diol]	–	–	2.5 (≈ 0.671 µg/mL)	–
CCCCCCCCCCC[C@H](O)C#C[C@@H](O)CC [(S,S)-6, (3S,6S)-heptadec-4-yne-3,6-diol]	–	–	2.5 (≈ 0.671 µg/mL)	–
CCCCCCCCCCCCC#CCO [Comparative example A, reference compound]	–	–	5 (≈ 1.12 µg/mL)	CC50 at 72 h [1]: 120 µM; CC50 at 72 h ([2]; monkey): 187 µM; MIC [3]: 20 µM (≈ 4.49 µg/mL); MIC [4, 9]: 5 µM (≈ 1.12 µg/mL)
C=CC(O)C#CC(O)CCCCCCCCCCC (centres unmarked) [Compound 2, Heptadec-1-en-4-yne-3,6-diol]	2	7.6	–	MIC ([4]; read-out: Anti-Mtb MIC): 1.25 µM (≈ 0.333 µg/mL)
C=C=CC(O)C#CC(O)CCCCCCCCCCC (centres unmarked) [Compound 3, Octadeca-1,2-dien-5-yne-4,7-diol]	9	8	–	MIC ([4]; read-out: Anti-Mtb MIC): 2.5 µM (≈ 0.696 µg/mL)
C#CC(O)C#CC(O)CCCCCCCCCCC (centres unmarked) [Compound 4, Heptadeca-1,4-diyne-3,6-diol]	4	2.5	–	MIC ([4]; read-out: Anti-Mtb MIC): 0.3 µM (≈ 0.0793 µg/mL)
CCCCCCCCCCCC(O)C#CC(O)c1ccccc1 (centres unmarked) [Compound 5, 1-Phenylpentadec-2-yne-1,4-diol]	50	46.5	1.25 (≈ 0.396 µg/mL)	–
CCCCCCCCCCCC(O)C#CC(O)CC (centres unmarked) [Compound 6, Heptadec-4-yne-3,6-diol]	40	43.2	2.5 (≈ 0.671 µg/mL)	MIC [3]: 10 µM (≈ 2.68 µg/mL); MIC [4, 9]: 2.5 µM (≈ 0.671 µg/mL)
CCCCCCCCCCCC(O)C#CC(O)C1CC1 (centres unmarked) [Compound 7, 1-Cyclopropylpentadec-2-yne-1,4-diol]	50	43.9	0.3 (≈ 0.0841 µg/mL)	–
CCCCCCCCCCCC(O)C#CC(O)C(C)(C)C (centres unmarked) [Compound 8, 2,2-Dimethylheptadec-4-yne-3,6-diol]	20	–	5 (≈ 1.48 µg/mL)	–
CCCCCCCCCCCC(O)C#CC(O)C(CC)CC (centres unmarked) [Compound 9, 3-Ethyloctadec-5-yne-4,7-diol]	20	–	5 (≈ 1.55 µg/mL)	–

SMILES	CC50 at 72 h ([1]; HCT-116 colon cancer cells) [µM]	CC50 at 72 h ([2]; African green monkey) [µM]	MIC [4, 10] [µM]	further results
CCCCCCCCCCCC(O)C#CC(O)C1CCCC1 (centres unmarked) [Compound 10, 1-Cyclopentylpentadec-2-yne-1,4-diol]	20	–	5 (≈ 1.54 µg/mL)	–
CCCCCCCCCCCC(O)C#CC(O)C1CCCCC1 (centres unmarked) [Compound 11, 1-Cyclohexylpentadec-2-yne-1,4-diol]	50	–	5 (≈ 1.61 µg/mL)	–
C=CC(O)C#CCC(O)CCCCCCCCCC (centres unmarked) [Compound 12, Heptadec-1-en-4-yne-3,7-diol]	2	12.5	–	MIC ([4]; read-out: Anti-Mtb MIC): 1.25 µM (≈ 0.333 µg/mL)
C=C=CC(O)C#CCC(O)CCCCCCCCCC (centres unmarked) [Compound 13, Octadeca-1,2-dien-5-yne-4,8-diol]	12	–	–	MIC ([4]; read-out: Anti-Mtb MIC): 0.6 µM (≈ 0.167 µg/mL)
C#CC(O)C#CCC(O)CCCCCCCCCC (centres unmarked) [Compound 14, Heptadeca-1,4-diyne-3,7-diol]	2	174	–	MIC ([4]; read-out: Anti-Mtb MIC): 0.6 µM (≈ 0.159 µg/mL)
CCCCCCCCCCC(O)CC#CC(O)c1ccccc1 (centres unmarked) [Compound 15, 1-Phenylpentadec-2-yne-1,5-diol]	41	75	2.5 (≈ 0.791 µg/mL)	–
CCCCCCCCCCC(O)CC#CC(O)CC (centres unmarked) [Compound 16, Heptadec-4-yne-3,7-diol]	51	75	5 (≈ 1.34 µg/mL)	–
CCCCCCCCCCC(O)CC#CC(O)C1CC1 (centres unmarked) [Compound 17, 1-Cyclopropylpentadec-2-yne-1,5-diol]	40	44.5	0.6 (≈ 0.168 µg/mL)	–
C=CC(O)C#CCCCCCCCCCCCC (centres unmarked) [Compound 18, Heptadec-1-en-4-yn-3-ol]	0.2	1	–	MIC ([4]; read-out: Anti-Mtb MIC): 2.5 µM (≈ 0.626 µg/mL)
C=C=CC(O)C#CCCCCCCCCCCCC (centres unmarked) [Compound 19, Octadeca-1,2-dien-5-yn-4-ol]	2.7	–	2.5 (≈ 0.656 µg/mL)	–
C#CC(O)C#CCCCCCCCCCCCC (centres unmarked) [Compound 20, Heptadeca-1,4-diyn-3-ol]	0.1	0.8	–	MIC ([4]; read-out: Anti-Mtb MIC): 1.2 µM (≈ 0.298 µg/mL)
CCCCCCCCCCCCC#CC(O)c1ccccc1 (centres unmarked) [Compound 21, 1-Phenylpentadec-2-yn-1-ol]	50	58.7	1.2 (≈ 0.361 µg/mL)	–
CCCCCCCCCCCCC#CC(O)CC (centres unmarked) [Compound 22, Heptadec-4-yn-3-ol]	12	> 50	–	MIC [3]: > 20 µM; MIC [4, 9]: 2.5 µM (≈ 0.631 µg/mL)
CCCCCCCCCCCCC#CC(O)C1CC1 (centres unmarked) [Compound 23, 1-Cyclopropylpentadec-2-yn-1-ol]	60	158	> 10	–
CCCCCCCCCCCCC#CC(O)C(C)(C)C (centres unmarked) [Compound 24, 2,2-Dimethylheptadec-4-yn-3-ol]	60	–	> 10	–
CCCCCCCCCCCCC#CC(O)C(CC)CC (centres unmarked) [Compound 25, 3-Ethyloctadec-5-yn-4-ol]	125	–	> 10	–
CCCCCCCCCCCCC#CC(O)C1CCCC1 (centres unmarked) [Compound 26, 1-Cyclopentylpentadec-2-yn-1-ol]	100	–	> 10	–
CCCCCCCCCCCCC#CC(O)C1CCCCC1 (centres unmarked) [Compound 27, 1-Cyclohexylpentadec-2-yn-1-ol]	60	–	10 (≈ 3.07 µg/mL)	–
C=C=CC(O)C#CCCCCCCCCC (centres unmarked) [Compound 28]	–	–	–	MIC [4, 11]: 5 µM (≈ 1.1 µg/mL); MIC [5]: > 10 µM; MIC [6]: > 10 µM; MIC [7]: > 10 µM; MIC [8]: 10 µM (≈ 2.2 µg/mL)

Source: EP4613730A1, “LIPIDIC ALKYNYLCARBINOLS WITH ANTI-BACTERIAL AND ANTI-TUBERCULOSIS ACTIVITY” (priority 2024, dated 2025)
